# Test results as given in the NIST ThermoML archive (doi:10.1016/j.fluid.2014.11.020).
# ± gives the expanded uncertainty stated by the source.
# Experiment: activity coefficient (dimensionless); of the first substance listed, at infinite dilution; xn = mol fraction of the nth substance listed
# Conditions: Liquid, Chromatography, x1 = 0
Structure (SMILES),activity coefficient (323.15 K),activity coefficient (333.15 K),activity coefficient (343.15 K)
CO [methanol] + Cn1cc[n+](COCCCOC[n+]2ccn(C)c2)c1.O=S(=O)([N-]S(=O)(=O)C(F)(F)F)C(F)(F)F.O=S(=O)([N-]S(=O)(=O)C(F)(F)F)C(F)(F)F,0.76 ± 0.05,0.75 ± 0.05,0.68 ± 0.05
CCOCC [diethyl ether] + CCCCCCCCn1cc[n+](COCCCOC[n+]2ccn(CCCCCCCC)c2C)c1C.N#C[N-]C#N.N#C[N-]C#N,2.41 ± 0.16,2.33 ± 0.16,2.13 ± 0.14
CCC(C)CC [3-methylpentane] + CCCCCCCCn1cc[n+](COCCCOC[n+]2ccn(CCCCCCCC)c2C)c1C.O=S(=O)([N-]S(=O)(=O)C(F)(F)F)C(F)(F)F.O=S(=O)([N-]S(=O)(=O)C(F)(F)F)C(F)(F)F,3.59 ± 0.24,3.36 ± 0.23,3.13 ± 0.21
CCCC(C)=O [pentan-2-one] + CCCOC[n+]1ccn(C)c1.F[B-](F)(F)F,3.32 ± 0.23,3.33 ± 0.23,3.31 ± 0.23
"Cc1ccc(C)cc1 [1,4-dimethylbenzene] + CCCOC[n+]1ccn(C)c1.O=S(=O)([N-]S(=O)(=O)C(F)(F)F)C(F)(F)F",2.58 ± 0.18,2.53 ± 0.17,2.52 ± 0.17
CCCCCCCCC [nonane] + N#C[N-]C#N.N#C[N-]C#N.c1ccc(Cn2cc[n+](COCCCOC[n+]3ccn(Cc4ccccc4)c3)c2)cc1,335 ± 23,264 ± 18,226 ± 16
CCCCCCCCCCCC [dodecane] + CCCOC[n+]1ccn(C)c1.N#C[N-]C#N,802 ± 55,716 ± 49,639 ± 44
C#CCCCCC [1-heptyne] + CCCCCCCCn1cc[n+](COCCC)c1C.O=S(=O)([N-]S(=O)(=O)C(F)(F)F)C(F)(F)F,1.68 ± 0.11,1.64 ± 0.11,1.62 ± 0.11
CCCCCCCCCC [decane] + CCCOC[n+]1ccn(C)c1.N#C[N-]C#N,372 ± 26,356 ± 24,287 ± 20
"Cc1cccc(C)c1 [1,3-dimethylbenzene] + CCCOC[n+]1ccc(N(C)C)cc1.O=S(=O)([N-]S(=O)(=O)C(F)(F)F)C(F)(F)F",1.4 ± 0.09,1.47 ± 0.1,1.48 ± 0.1
"Cc1ccc(C)cc1 [1,4-dimethylbenzene] + CCCOC[n+]1ccn(C)c1.N#C[N-]C#N",5.98 ± 0.41,6.03 ± 0.41,6.05 ± 0.41
ClCCl [dichloromethane] + Cn1cc[n+](COCCCOC[n+]2ccn(C)c2)c1.N#C[N-]C#N.N#C[N-]C#N,0.73 ± 0.05,0.8 ± 0.05,0.86 ± 0.06
CCCCO [butan-1-ol] + N#C[N-]C#N.N#C[N-]C#N.c1ccc(Cn2cc[n+](COCCCOC[n+]3ccn(Cc4ccccc4)c3)c2)cc1,1.8 ± 0.12,1.68 ± 0.11,1.61 ± 0.11
CC(C)CO [2-methyl-1-propanol] + CCCCCCCCn1cc[n+](COCCCOC[n+]2ccn(CCCCCCCC)c2C)c1C.N#C[N-]C#N.N#C[N-]C#N,0.36 ± 0.03,0.36 ± 0.03,0.35 ± 0.03
CCN(CC)CC [triethylamine] + Cn1cc[n+](COCCCOC[n+]2ccn(C)c2)c1.N#C[N-]C#N.N#C[N-]C#N,54.6 ± 3.7,52.5 ± 3.6,50.5 ± 3.5
CCC(=O)CC [pentan-3-one] + N#C[N-]C#N.N#C[N-]C#N.c1ccc(Cn2cc[n+](COCCCOC[n+]3ccn(Cc4ccccc4)c3)c2)cc1,2.88 ± 0.2,2.89 ± 0.2,2.91 ± 0.2
c1ccccc1 [benzene] + CCCOC[n+]1ccn(Cc2ccccc2)c1.F[B-](F)(F)F,2.01 ± 0.14,2 ± 0.14,1.99 ± 0.14
c1ccccc1 [benzene] + CCCOC[n+]1ccn(C)c1.O=S(=O)([N-]S(=O)(=O)C(F)(F)F)C(F)(F)F,1.2 ± 0.08,1.17 ± 0.07,1.17 ± 0.07
C#CCCCC [1-hexyne] + CCCCCCCCn1cc[n+](COCCCOC[n+]2ccn(CCCCCCCC)c2C)c1C.O=S(=O)([N-]S(=O)(=O)C(F)(F)F)C(F)(F)F.O=S(=O)([N-]S(=O)(=O)C(F)(F)F)C(F)(F)F,1.13 ± 0.07,1.13 ± 0.07,1.14 ± 0.07
CCCCCC [hexane] + CCCCCCCCn1cc[n+](COCCC)c1C.N#C[N-]C#N,7.08 ± 0.48,6.92 ± 0.47,6.8 ± 0.46
CCCCCCCCC [nonane] + CCCOC[n+]1ccn(C)c1.N#C[N-]C#N,263 ± 18,234 ± 16,197 ± 14
CCCCO [butan-1-ol] + CCCCCCCCn1cc[n+](COCCCOC[n+]2ccn(CCCCCCCC)c2C)c1C.O=S(=O)([N-]S(=O)(=O)C(F)(F)F)C(F)(F)F.O=S(=O)([N-]S(=O)(=O)C(F)(F)F)C(F)(F)F,0.84 ± 0.05,0.74 ± 0.05,0.69 ± 0.05

Structure (SMILES),activity coefficient (323.15 K),activity coefficient (333.15 K),activity coefficient (343.15 K)
CC1CCCCC1 [methylcyclohexane] + CCCCCCCCn1cc[n+](COCCC)c1C.N#C[N-]C#N,5.11 ± 0.35,4.86 ± 0.33,4.81 ± 0.33
CC(C)OC(C)C [diisopropyl ether] + CCCOC[n+]1ccn(Cc2ccccc2)c1.O=S(=O)([N-]S(=O)(=O)C(F)(F)F)C(F)(F)F,3 ± 0.2,2.87 ± 0.2,2.74 ± 0.19
c1ccncc1 [pyridine] + N#C[N-]C#N.N#C[N-]C#N.c1ccc(Cn2cc[n+](COCCCOC[n+]3ccn(Cc4ccccc4)c3)c2)cc1,1.1 ± 0.07,1.1 ± 0.07,1.12 ± 0.07
C=CCCCC [hex-1-ene] + CCCCCCCCn1cc[n+](COCCCOC[n+]2ccn(CCCCCCCC)c2C)c1C.N#C[N-]C#N.N#C[N-]C#N,4.93 ± 0.34,4.41 ± 0.3,–
c1ccsc1 [thiophene] + Cn1cc[n+](COCCCOC[n+]2ccn(C)c2)c1.N#C[N-]C#N.N#C[N-]C#N,1.58 ± 0.1,1.63 ± 0.11,1.68 ± 0.11
"C1COCCO1 [1,4-dioxane] + CCCCCCCCn1cc[n+](COCCCOC[n+]2ccn(CCCCCCCC)c2C)c1C.N#C[N-]C#N.N#C[N-]C#N",0.55 ± 0.04,0.55 ± 0.04,0.55 ± 0.04
CCCO [propan-1-ol] + CCCCCCCCn1cc[n+](COCCCOC[n+]2ccn(CCCCCCCC)c2C)c1C.O=S(=O)([N-]S(=O)(=O)C(F)(F)F)C(F)(F)F.O=S(=O)([N-]S(=O)(=O)C(F)(F)F)C(F)(F)F,0.72 ± 0.05,0.65 ± 0.04,0.77 ± 0.05
"Cc1cccc(C)c1 [1,3-dimethylbenzene] + CCCOC[n+]1ccn(Cc2ccccc2)c1.F[B-](F)(F)F",5.41 ± 0.37,4.91 ± 0.33,4.91 ± 0.33
CCCCCCC [heptane] + CCCOC[n+]1ccn(Cc2ccccc2)c1.O=S(=O)([N-]S(=O)(=O)C(F)(F)F)C(F)(F)F,12 ± 0.82,10.1 ± 0.69,9.58 ± 0.65
C#CCCCC [1-hexyne] + Cn1cc[n+](COCCCOC[n+]2ccn(C)c2)c1.N#C[N-]C#N.N#C[N-]C#N,15.8 ± 1.1,15.2 ± 1,14.6 ± 1
CCC(C)=O [butanone] + CCCOC[n+]1ccn(C)c1.F[B-](F)(F)F,1.73 ± 0.12,1.6 ± 0.11,1.49 ± 0.1
CCc1ccccc1 [ethylbenzene] + CCCCCCCCn1cc[n+](COCCC)c1C.O=S(=O)([N-]S(=O)(=O)C(F)(F)F)C(F)(F)F,1.01 ± 0.06,1.03 ± 0.06,1.04 ± 0.07
CCCCCCCCC [nonane] + CCCOC[n+]1ccn(Cc2ccccc2)c1.N#C[N-]C#N,110 ± 7.6,93.6 ± 6.4,76.2 ± 5.2
ClC(Cl)Cl [trichloromethane] + Cn1cc[n+](COCCCOC[n+]2ccn(C)c2)c1.O=S(=O)([N-]S(=O)(=O)C(F)(F)F)C(F)(F)F.O=S(=O)([N-]S(=O)(=O)C(F)(F)F)C(F)(F)F,0.87 ± 0.06,0.89 ± 0.06,0.71 ± 0.05
CC(C)OC(C)C [diisopropyl ether] + CCCOC[n+]1ccn(C)c1.O=S(=O)([N-]S(=O)(=O)C(F)(F)F)C(F)(F)F,4.69 ± 0.32,4.82 ± 0.33,4.46 ± 0.3
CCCCCCCCC [nonane] + CCCOC[n+]1ccn(Cc2ccccc2)c1.O=S(=O)([N-]S(=O)(=O)C(F)(F)F)C(F)(F)F,23.3 ± 1.6,19.1 ± 1.3,17.5 ± 1.2
CC1CCCCC1 [methylcyclohexane] + CCCOC[n+]1ccn(Cc2ccccc2)c1.N#C[N-]C#N,21.3 ± 1.5,20.4 ± 1.4,18.2 ± 1.2
C#CCCCC [1-hexyne] + CCCOC[n+]1ccn(Cc2ccccc2)c1.N#C[N-]C#N,4.41 ± 0.3,4.29 ± 0.29,–
CCCO [propan-1-ol] + CCCOC[n+]1ccn(C)c1.O=S(=O)([N-]S(=O)(=O)C(F)(F)F)C(F)(F)F,1.86 ± 0.13,1.66 ± 0.11,1.5 ± 0.1
C[N+](=O)[O-] [nitromethane] + N#C[N-]C#N.N#C[N-]C#N.c1ccc(Cn2cc[n+](COCCCOC[n+]3ccn(Cc4ccccc4)c3)c2)cc1,0.86 ± 0.06,0.85 ± 0.05,0.87 ± 0.06
c1ccsc1 [thiophene] + CCCOC[n+]1ccn(C)c1.O=S(=O)([N-]S(=O)(=O)C(F)(F)F)C(F)(F)F,1.06 ± 0.07,1.05 ± 0.07,1.04 ± 0.07
"Cc1ccccc1C [1,2-dimethylbenzene] + CCCCCCCCn1cc[n+](COCCCOC[n+]2ccn(CCCCCCCC)c2C)c1C.O=S(=O)([N-]S(=O)(=O)C(F)(F)F)C(F)(F)F.O=S(=O)([N-]S(=O)(=O)C(F)(F)F)C(F)(F)F",0.68 ± 0.05,0.66 ± 0.05,0.66 ± 0.05
